{"source": "patent US20210139999A1", "about": "“PROGNOSTIC AND TREATMENT RESPONSE PREDICTIVE METHOD” (Cancer Research Technology Limited, priority 2018, published 2021)", "origin": "cited, not measured here", "tested_on": "renal cancer", "settings": "81 patients with response data, single agent arm"}
{"substance": "Atezolizumab", "values": [{"measurement": "responders", "value": 25, "unit": "%"}]}
